Results on 2 substances are retold here after patent publication US10973880B2, “Compositions and methods for treating pulmonary hypertension” (Acceleron Pharma Inc., priority 2016, dated 2021).

The test system of test [1] is rat model of pulmonary arterial hypertension (PAH), monocrotaline (MCT) induced. Briefly: monocrotaline rat model of pulmonary arterial hypertension. The test is classed as in vivo, Sprague Dawley rats. As to the method:
The effects of an ActRIIA-mFc fusion protein (ActRIIA-mFc homodimer as described in Example 1), an ALK4-Fc-ActRIIB-Fc heterodimer (as described in Examples 12 and 13), and sildenafil (a phosphodiesterase-5 inhibitor approved for the treatment of PAH) were examined in a rat model of pulmonary arterial hypertension (PAH). In this model, Sprague Dawley rats received a […] injection of monocrotaline (MCT) to induce PAH 24 hours prior to start of therapy.
Rats were separated into different treatment groups (10 mice per group): 1) treatment with MCT (60 mg/kg administered i.p. as a single dose at day 1 of study) and Tris buffered saline (i.p. as 1 ml/kg, every three days) (vehicle treatment group), 2) treatment with an ActRIIA-mFc polypeptide (10 mg/kg administered i.p. every three days) and MCT (60 mg/kg administered i.p. as a single dose at day 1 of study), 3) treatment with an ALK4-Fc:ActRIIB-Fc heterodimer (10 mg/kg administered i.p. every three days) and MCT (60 mg/kg administered i.p. as a single dose at day 1 of study), 4) treatment with sildenafil (30 mg/kg administered orally twice daily) and MCT (60 mg/kg administered i.p. as a single dose at day 1 of study), and 5) control rats (Tris buffered saline administered i.p. as 1 ml/kg, every three days). Rats were treated for 28 days. Body weights were recorded prior to first dose on Day 1 and then weekly throughout the study.
On day 28, rats were anesthetized by an intraperitoneal injection of ketamine/xylazine (80/10 mg/kg). An incision was made in the neck, and a jugular vein was isolated and ligated anteriorly. A fluid-filled pressure catheter was introduced into the right jugular vein to measure pulmonary artery pressure (PAP). Another incision was made in the inguinal region, and femoral artery was isolated and ligated anteriorly. A Millar pressure catheter was introduced into a femoral artery to measure systolic arterial pressure, diastolic pressure, and heart rate. Mean arterial pressure and right PAP were monitored using the Notocord HEM (Croissy sur Seine, Frnace) v3.5 data capture system for approximately 5-10 minutes until stable measurements were obtained. During the measurements, rats were maintained at approximately 37° C. on a heating pad and body temperature was monitored throughout the procedure with a rectal temperature probe. At the conclusion of the procedure, rats were euthanized, and the hearts and lungs were removed. The entire heart was weighed. Next, the atria were removed and the left ventricle with septum (LV+S) was separated from the right ventricle (RV). The ventricles were weighed separately. Hypertrophy was assessed, in part, by calculating RV/LV+S. The lungs were also weighed.
Similar trends were observed on vessel muscularity based on histopathologic scoring. After staining tissue samples to detect αSMA/elastin, 100 pulmonary arterioles, between 10 μm and 50 μm in size, per animal were categorized as non-muscularized, partially muscularized, or completely muscularized. Pulmonary arterioles from vehicle treated rats were determined to be 62.3% completely muscularized, 36.4% partially muscularized, and 1.4% non-muscularized. […] Histopathological scoring of smooth muscle hypertrophy of pulmonary arterioles were also recorded as follows: 0 (normal), 1 (minimal), 2 (mild), 3 (moderate), or 4 (marked).

Test [2] concerns Sugen Hypoxia model of PAH (semaxanib/hypoxia). Briefly: Sugen Hypoxia rat model of PAH. As to conditions: 0 normal, 1 minimal, 2 mild, 3 moderate, 4 marked. Type of test: in vivo. As to the method: The effects of an ActRIIA-mFc fusion protein (ActRIIA-mFc homodimer as described in Example 1 and sildenafil (a phosphodiesterase-5 inhibitor approved for the treatment of PAH) were further examined the Sugen Hypoxia model of PAH. In this model, rats receive daily doses of semaxanib and are placed in a low oxygen environment (approximately 13% oxygen) to induce PAH 24 hours prior to start of therapy.
Rats were separated into different treatment groups (10 mice per group): 1) treatment with semaxanib (200 mg/kg administered s.c. as a single dose daily)/hypoxia and Tris buffered saline (administered i.p. as 1 ml/kg, every three days) (vehicle treatment group), 2) treatment with an ActRIIA-mFc polypeptide (10 mg/kg administered i.p. every three days) and semaxanib (200 mg/kg administered s.c. as a single dose daily)/hypoxia, 3) treatment with sildenafil (30 mg/kg administered orally twice daily) and semaxanib (200 mg/kg administered s.c. as a single dose daily)/hypoxia, and 4) control rats (Tris buffered saline administered i.p. as 1 ml/kg, every three days). Rats were treated for 28 days. Body weights were recorded prior to first dose on Day 1 and then weekly throughout the study.
On day 28, rats were anesthetized by an intraperitoneal injection of ketamine/xylazine (80/10 mg/kg). […] Hypertrophy was assessed, in part, by calculating RV/LV+S. The lungs were also weighed. […]

The target of test [3] is T1, BMP10 (Homo sapiens, UniProt O95393).
T1 sequence (O95393 317-424): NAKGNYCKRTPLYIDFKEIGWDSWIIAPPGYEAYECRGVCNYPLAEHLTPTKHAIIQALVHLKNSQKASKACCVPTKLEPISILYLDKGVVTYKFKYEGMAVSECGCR
In words: Biacore ligand affinity (Example 10). The test is classed as binding. As to conditions: Smad 1/5/8 ligand. As to the method:
(§1) The affinity of GDF traps and other ActRIIB-hFc proteins for several ligands was evaluated in vitro with a Biacore™ instrument. Kd values were obtained by steady-state affinity fit due to the very rapid association and dissociation of the complex, which prevented accurate determination of kon and koff.

The target in test [4] is T2, BMP6 (Homo sapiens, UniProt P22004).
T2 sequence (P22004 375-513): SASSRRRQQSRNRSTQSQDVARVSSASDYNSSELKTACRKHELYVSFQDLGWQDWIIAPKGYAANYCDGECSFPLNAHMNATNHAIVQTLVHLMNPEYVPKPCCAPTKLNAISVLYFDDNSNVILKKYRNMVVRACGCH
Briefly: Biacore ligand affinity (Example 10). The test is classed as binding. The note with it: Smad 1/5/8 ligand. As to the method: as §1
(In general: SPR reads the build-up and loss of mass on a sensor chip optically.)

Test [5] deals with T3, GDF8 (Homo sapiens, UniProt O14793).
T3 sequence (O14793 267-375): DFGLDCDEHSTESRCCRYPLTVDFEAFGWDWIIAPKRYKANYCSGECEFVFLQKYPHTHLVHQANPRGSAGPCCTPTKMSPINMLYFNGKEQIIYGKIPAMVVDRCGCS
In words: Biacore ligand affinity (Example 10). As to conditions: Smad 2/3 signaling ligand. Type of test: binding. As to the method:
as §1

For “ActRIIA-mFc: extracellular domain of human ActRIIa fused to a mouse Fc domain with a minimal linker; homodimer”, the “smooth muscle hypertrophy of pulmonary arterioles, average histopathological score” value in test [1] (0 normal, 1 minimal, 2 mild, 3 moderate, 4 marked) is listed as 1.6 score; in test [2], 1.4 score. In test [1] (28 days, compared to monocrotaline treated rats, proteins 10 mg/kg i.p. every three days, sildenafil 30 mg/kg orally twice daily), the “improvement in body weight” value is on record as “did not show improvement”.
Take “ActRIIB(L79D 25-131)-hFc: GDF trap with truncated ActRIIB extracellular domain (residues 25-131, L79D) fused to human Fc (SEQ ID NO: 78)”: the “binding to BMP10” value in test [3] is listed as “strong to intermediate binding”. In addition, in test [4], the “binding to BMP6” value was “strong to intermediate binding”. Moreover, the “binding to GDF8” value in test [5] is listed as “strong to intermediate binding”.
